Test results as given in patent US7022650B2, “4-trifluoromethylpyrazolyl-substituted pyridines and pyrimidines” (Bayer CropScience GmbH, priority 2002, dated 2006).

What was measured:
Avena fatua = test: Weed plant herbicidal activity, pre-emergence; format: in vivo; settings: 20 g of active substance per hectare, visual scoring after 3 to 4 weeks
From the text: (§1) 1. Weed plant herbicidal activity and crop plant tolerance, pre-emergence Seeds of monocot and dicot weed plants and of crop plants are placed in sandy loam soil in cardboard pots and are covered with soil. The compounds of the invention, formulated as wettable powders or emulsifiable concentrates, are then applied as an aqueous suspension or emulsion, respectively, in different dosages to the surface of the covering soil at an application rate of 600 to 800 l of water per ha (converted). Following treatment, the pots are placed in a greenhouse and kept under good growth conditions for the weeds. Visual scoring of the plant damage or emergence damage is made after the experimental plants have emerged, after an experimental period of 3 to 4 weeks, in comparison with untreated controls. […] At the same application rate this compound of the invention causes no damage to the crop plants Oryza sativa (rice) or Zea mays (maize).

Agropyrons repens = test: Weed plant herbicidal activity, pre-emergence; format: in vivo; settings: 20 g of active substance per hectare, visual scoring after 3 to 4 weeks
From the text: as §1

Veronica persica [1] = test: Weed plant herbicidal activity, pre-emergence; format: in vivo; settings: 20 g of active substance per hectare, visual scoring after 3 to 4 weeks
From the text: as §1

Sorghum halepense = test: Weed plant herbicidal activity, pre-emergence; format: in vivo; settings: 20 g of active substance per hectare, visual scoring after 3 to 4 weeks
From the text: as §1

Galium aparine = test: Weed plant herbicidal activity, pre-emergence; format: in vivo; settings: 20 g of active substance per hectare, visual scoring after 3 to 4 weeks
From the text: as §1

Alopecurus myosuroides = test: Weed plant herbicidal activity, pre-emergence; format: in vivo; settings: 20 g of active substance per hectare, visual scoring after 3 to 4 weeks
From the text: as §1

Digitaria sanguinalis [2] = test: Weed plant herbicidal activity, pre-emergence; format: in vivo; settings: 20 g of active substance per hectare, visual scoring after 3 to 4 weeks
From the text: as §1

Amaranthus retroflexus = test: Weed plant herbicidal activity, pre-emergence; format: in vivo; settings: 20 g of active substance per hectare, visual scoring after 3 to 4 weeks
From the text: as §1

Lolium multiflorum = test: Weed plant herbicidal activity, pre-emergence; format: in vivo; settings: 20 g of active substance per hectare, visual scoring after 3 to 4 weeks
From the text: as §1

Setaria viridis = test: Weed plant herbicidal activity, pre-emergence; format: in vivo; settings: 20 g of active substance per hectare, visual scoring after 3 to 4 weeks
From the text: as §1

Zea mays (maize) = test: Crop plant tolerance, pre-emergence; format: in vivo; settings: 20 g of active substance per hectare, 3 to 4 weeks
From the text: as §1

Oryza sativa (rice) [3] = test: Crop plant tolerance, pre-emergence; format: in vivo; settings: 20 g of active substance per hectare, 3 to 4 weeks
From the text: as §1

Pharbitis purpureum = test: Weed plant herbicidal activity, post-emergence; format: in vivo; settings: three-leaf stage, 80 g of active substance per hectare, scored after 3 to 4 weeks
Procedure: (§2) 2. Weed plant herbicidal activity and crop plant tolerance, post-emergence Seeds of monocot and dicot weed plants and of crop plants are placed in sandy loam in cardboard pots, covered with soil, and grown under good growth conditions in a greenhouse. Two to three weeks after sowing, the experimental plants are treated at the three-leaf stage. The compounds of the invention, formulated as wettable powders or as emulsifiable concentrates, are sprayed at different dosages onto the surface of the green parts of the plants at an application rate of 600 to 800 l of water per ha (converted). After the experimental plants have stood in the greenhouse for 3 to 4 weeks under optimum growth conditions, the activity of the compounds is scored. […] At the same application rate this compound of the invention causes no damage to the crop plant Oryza sativa (rice) and 20% damage to Triticum aestivum (wheat).

Veronica persica [4] = test: Weed plant herbicidal activity, post-emergence; format: in vivo; settings: three-leaf stage, 80 g of active substance per hectare, scored after 3 to 4 weeks
Procedure: as §2

Chenopodium album = test: Weed plant herbicidal activity, post-emergence; format: in vivo; settings: three-leaf stage, 80 g of active substance per hectare, scored after 3 to 4 weeks
Procedure: as §2

Digitaria sanguinalis [5] = test: Weed plant herbicidal activity, post-emergence; format: in vivo; settings: three-leaf stage, 80 g of active substance per hectare, scored after 3 to 4 weeks
Procedure: as §2

Matricaria inodora = test: Weed plant herbicidal activity, post-emergence; format: in vivo; settings: three-leaf stage, 80 g of active substance per hectare, scored after 3 to 4 weeks
Procedure: as §2

Oryza sativa (rice) [6] = test: Crop plant tolerance, post-emergence; format: in vivo; settings: 80 g of active substance per hectare, 3 to 4 weeks
Procedure: as §2

[7] = test system: Triticum aestivum (wheat); test: Crop plant tolerance, post-emergence; format: in vivo; settings: 80 g of active substance per hectare, 3 to 4 weeks
Procedure: as §2

| SMILES | melting point | activity against Avena fatua (Avena fatua) | activity against Agropyrons repens (Agropyrons repens) | activity against Veronica persica (Veronica persica [1]) | activity against Sorghum halepense (Sorghum halepense) | activity against Galium aparine (Galium aparine) | activity against Alopecurus myosuroides (Alopecurus myosuroides) | activity against Digitaria sanguinalis (Digitaria sanguinalis [2]) | activity against Amaranthus retroflexus (Amaranthus retroflexus) | activity against Lolium multiflorum (Lolium multiflorum) | activity against Setaria viridis (Setaria viridis) | damage to the crop plant Zea mays (maize) (Zea mays (maize)) | damage to the crop plant Oryza sativa (rice) (Oryza sativa (rice) [3]) | activity against Pharbitis purpureum (Pharbitis purpureum) | activity against Veronica persica (Veronica persica [4]) | activity against Chenopodium album (Chenopodium album) | activity against Digitaria sanguinalis (Digitaria sanguinalis [5]) | activity against Matricaria inodora (Matricaria inodora) | damage to the crop plant Oryza sativa (rice) (Oryza sativa (rice) [6]) | damage to Triticum aestivum (wheat) [7] |
| --- | --- | --- | --- | --- | --- | --- | --- | --- | --- | --- | --- | --- | --- | --- | --- | --- | --- | --- | --- | --- |
| Cc1cnc(-n2cc(C(F)(F)F)cn2)nc1Oc1csc(C(F)(F)F)c1 [1.8, 5-methyl-2-(4-trifluoromethyl-1H-1-pyrazolyl)-4-(5-trifluoromethyl-3-thienyloxy)pyrimidine] | 94 to 96 °C |  |  |  |  |  |  |  |  |  |  |  |  |  |  |  |  |  |  |  |
| COc1cnc(-n2cc(C(F)(F)F)cn2)nc1Oc1csc(C(F)(F)F)c1 [Example No. 1.22, 5-methoxy-2-(4-trifluoromethyl-1H-1-pyrazolyl)-4-(5-trifluoromethyl-3-thienyloxy)pyrimidine] | 109 to 111 °C | at least 80% | at least 80% | at least 80% | at least 80% | at least 80% | at least 80% | at least 80% | at least 80% | at least 80% | at least 80% | no damage | no damage | at least 90% | at least 90% | at least 90% | at least 90% | at least 90% | no damage | 20% |
